Data on 2 compounds can be found in patent publication US10106539B2, “Spiro-indolines for the treatment and prophylaxis of respiratory syncytial virus infection (RSV)” (REVIRAL LIMITED, priority 2014, dated 2018).

In data set [1] the target is T1, RSV fusion (A2_F) (Human respiratory syncytial virus A, UniProt P03420).
T1 construct: expressed in transfected cells; host or cells: HEK 293T/17
The data set can be described thus: RSV fusion assay (luciferase reporter, transfected HEK 293T/17 cells). It counts as cell-based. As for the experimental part:
HEK 293T/17 cells were cultured in T75 culture flasks in Dulbecco's medium containing 10% FBS and 1× Penicillin-Streptomycin and warmed to 37° C. prior to use. The cells were passaged by first washing briefly with 3 ml PBS followed by a 4 min incubation with […] at 37° C. 7 ml media was then added to the flask and the cells dispersed via pipetting (×3) against the bottom of the flask. Two further T75 flasks were each seeded with 2×10^6 cells in 15 ml fresh media.
Cells were seeded on the T75 plates at the same density as on the 6-well plates to the area of a T75 flask and one 1.75 cm radius well from a 6-well plate were compared. 7.79×2 ml of 3×10^5 cells ml^−1 was used to seed a single T75 flask.
HEK cells were removed from a T75 flask as described above. The cells were counted and diluted to 3×10^5 cells/ml in fresh media. Two T75 flasks were each seeded with 15.58 ml diluted cells.
The plasmid DNA (for pFR-Luc and pcDNA3.1_Gal4/NFκB) to be transfected into the HEK cells was first prepared in serum free media (DMEM+Pen/Strep) containing the transfection reagent Fugene 6 (Promega). Transfections were set up as follows (Luc=pFR_Luc, Gal4=pcDNA3.1+_Gal4/NFκB, A2_F=pcDNA3.1+_A2_F)
Serum free media was placed in a 1.5 ml eppendorf tube then the fugene 6 was added into the media. The tube was vortexed for 1 s before being incubated at RT for 5 min. The plasmid DNA was then added to the tube, vortexed for 1 s, then incubated at RT for 15 min
The transfection reagents were then added to the appropriate T75 flask by tipping the flask on end and adding the reagents directly to the media already in the flask. […]
Luminescence was measured at appropriate time points as follows:
Media was discarded into Virkon and the plates washed with 100 ul PBS per well. […] Add 100 μl working luciferin buffer to each well and luminescence was measured immediately.
Media was discarded into Virkon and 100 ul SFM+20 ul CellTitre-Blue solution was added to each well. […] Resorufin fluorescence was measured at 590 nm.
On the technique in general: Reporter assays use an easily measured gene product as a stand-in for the process of interest.

Data set [2] can be described thus: Liver microsomal stability, rat. The format is in vitro ADME. To be noted: male, Sprague Dawley. The method, then:
(§1) Microsomal Incubation: Experimental Procedure
(§2) Pooled human liver microsomes (pooled male and female), pooled rat liver microsomes (male Sprague Dawley rats) and pooled dog liver microsomes (male Beagle dog) are purchased from a reputable commercial supplier and stored at −80° C. prior to use.
The final incubation volume is 50 μL. A control incubation is included for each compound tested where 0.1 M phosphate buffer pH 7.4 is added instead of NADPH (minus NADPH). Two control compounds are included with each species. All incubations are performed singularly for each test compound.
(§3) The reactions are stopped by transferring 25 μL of incubate to 50 μL methanol at the appropriate time points. The termination plates are centrifuged at 2,500 rpm for 20 min at 4° C. to precipitate the protein. Following protein precipitation, the sample supernatants are combined in cassettes of up to 4 compounds, internal standard is added and samples analysed by LC-MS/MS. From a plot of ln peak area ratio (compound peak area/internal standard peak area) against time, the gradient of the line is determined. Subsequently, half-life and intrinsic clearance are calculated

Data set [3] can be described thus: Liver microsomal stability, human. The format is in vitro ADME. The following applies: both sexes, pH 7.4, human liver microsomes. As for the experimental part: as §1, §2
Microsomes (final protein concentration 0.5 mg/mL), 0.1 M phosphate buffer pH 7.4 and test compound (final substrate concentration 3 μM; final DMSO concentration 0.25%) are pre-incubated at 37° C. prior to the addition of NADPH (final concentration 1 mM) to initiate the reaction. The final incubation volume is 50 μL. A control incubation is included for each compound tested where 0.1 M phosphate buffer pH 7.4 is added instead of NADPH (minus NADPH). Two control compounds are included with each species. All incubations are performed singularly for each test compound.
as §3, with “Compounds are incubated for 0, 5, 15, 30 and 45 min. The control (minus NADPH) is incubated for 45 min only. The reactions” for “The reactions”

Data set [4] in a line: Plasma protein binding (equilibrium dialysis), rat. It counts as in vitro ADME. The following applies: plasma (100%). The method, then: Protein Binding Determination: Experimental Procedure
Solutions of test compound (5 μM, 0.5% final DMSO concentration) are prepared in buffer (pH 7.4) and 100% species-specific plasma. The experiment is performed using equilibrium dialysis with the two compartments separated by a semi-permeable membrane. The buffer solution is added to one side of the membrane and the plasma solution to the other side. After equilibration, samples are taken from both sides of the membrane. Standards are prepared in plasma and buffer and are incubated at 37° C.
Test compound incubations are performed in duplicate. A control compound is included in each experiment.
The solutions for each batch of compounds are combined into two groups (protein-free and protein-containing), then cassette analysed by LC-MS/MS using two sets of calibration standards for protein-free (7 points) and protein-containing solutions (6 points).

Like-named read-outs stand apart in the source and are kept apart here.

T1 sequence (P03420 26-109): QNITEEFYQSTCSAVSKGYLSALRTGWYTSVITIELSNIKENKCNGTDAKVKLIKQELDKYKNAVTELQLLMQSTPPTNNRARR
T1 sequence (P03420 137-574): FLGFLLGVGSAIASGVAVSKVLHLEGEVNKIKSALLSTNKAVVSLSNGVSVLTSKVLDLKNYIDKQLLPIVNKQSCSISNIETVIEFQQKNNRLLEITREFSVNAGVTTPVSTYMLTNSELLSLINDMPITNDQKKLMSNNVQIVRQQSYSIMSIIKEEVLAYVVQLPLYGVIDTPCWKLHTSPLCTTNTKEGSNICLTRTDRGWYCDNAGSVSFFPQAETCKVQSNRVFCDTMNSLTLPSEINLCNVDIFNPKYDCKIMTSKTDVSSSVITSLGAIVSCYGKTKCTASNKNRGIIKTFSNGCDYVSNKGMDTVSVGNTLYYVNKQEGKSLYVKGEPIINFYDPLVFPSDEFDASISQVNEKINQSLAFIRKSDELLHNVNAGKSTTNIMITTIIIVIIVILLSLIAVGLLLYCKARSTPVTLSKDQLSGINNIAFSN

Compound `NCc1ccc2c(c1)nc(CN1C(=O)C3(CC3)c3ccc(F)cc31)n2CCCC(F)(F)F` [Example 1, 1′-{[5-(Aminomethyl)-1-(4,4,4-trifluorobutyl)-1H-1,3-benzodiazol-2-yl]methyl}-6′-fluoro-1′,2′-dihydrospiro[cyclopropane-1,3′-indole]-2′-one] came in with an IC50 in data set [1] of 1.1 nM. The 90% effect concentration (IC90) in data set [1] (HEK293T/17, read-out: RSV Fusion Assay IC90) worked out at 9.4 nM. For the same compound, the half-life at 3 μM was determined as 80 min in data set [2] (pH 7.4, rat liver microsomes, 3 μM compound, read-out: Liver Microsomal Stability T1/2, rat) and 32 min in data set [3] (3 μM compound, read-out: Liver Microsomal Stability T1/2, human). For the same compound, in data set [4] (pH 7.4, 5 μM, read-out: PPB fraction unbound, rat), the fraction unbound at 5 μM was determined as 0.52.

With `CC(C)CCn1c(CN2C(=O)C3(CC3)c3ccccc32)nc2cc(CN)ccc21` [RV039, 1′-((5-(aminomethyl)-1-isopentyl-1H-benzo[d]imidazol-2-yl)methyl)spiro[cyclopropane-1,3′-indolin]-2′-one, reference compound], the IC50 in data set [1] came to 10 nM. In addition, the half-life at 3 μM in data set [2] (pooled liver microsomes, pH 7.4, Comparative Example 2, read-out: Liver Microsomal Stability T1/2, rat (Table 5)) is above 95 min; in data set [3] (Comparative Example 2, read-out: Liver Microsomal Stability T1/2, human (Table 5)) it was 5 min. Moreover, in data set [4] (pH 7.4, Comparative Example 2, read-out: PPB fraction unbound, rat (Table 5)), the fraction unbound at 5 μM worked out at 0.1.

By IC50 is commonly meant the point on the concentration scale where inhibition reaches its midpoint. A lower IC50 goes with greater potency in that assay. By IC90 is commonly meant the concentration needed for an effect of 90%. One may read the fraction unbound as the share of the substance not bound to proteins or other matrix.
